According to US11066393B2, “Indolin-2-one derivatives” (Hoffmann-La Roche Inc., priority 2015, dated 2021):

What follows are molecules tested against T1, mouse ENT-1 transporter (Mus musculus, UniProt Q9JIM1) (assay: Adenosine transport activity (ENT1, [3H]-adenosine uptake)). Settings: stable cells expressing mouse ENT-1; [2,8-3H]-adenosine 6 nM, 20 min.
T1 construct: expressed in transfected cells
T1 sequence (Q9JIM1 1-460): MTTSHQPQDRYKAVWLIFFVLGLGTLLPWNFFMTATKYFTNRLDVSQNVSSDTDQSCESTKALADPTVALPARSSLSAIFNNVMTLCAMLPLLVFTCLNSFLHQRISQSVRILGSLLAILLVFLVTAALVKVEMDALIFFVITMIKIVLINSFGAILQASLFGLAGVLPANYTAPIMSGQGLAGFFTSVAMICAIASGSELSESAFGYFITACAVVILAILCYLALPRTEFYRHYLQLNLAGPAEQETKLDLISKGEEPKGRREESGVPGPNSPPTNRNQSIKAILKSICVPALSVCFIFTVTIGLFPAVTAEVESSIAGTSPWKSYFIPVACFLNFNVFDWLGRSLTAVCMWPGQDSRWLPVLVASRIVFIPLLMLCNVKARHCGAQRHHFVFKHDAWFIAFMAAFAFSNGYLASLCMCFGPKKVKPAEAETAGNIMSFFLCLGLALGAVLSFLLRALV
Format: cell-based
Description: To measure adenosine transport activity of ENT-1 mammalian cells, stable cells expressing the mouse ENT-1 transporter were plated on day 1 in 96-well culture plates at the density of 60,000 cells/well, in complete DMEM/F12 medium supplemented with glutamax, 10% FBS and 10 μg/ml puromycin. On day 2, the medium was aspirated and the cells were washed twice with uptake buffer (10 mM Hepes-Tris, pH 7.4 containing 150 mM NaCl, 1 mM CaCl2, 2.5 mM KCl, 2.5 mM MgSO4, 10 mM D-glucose) (UB). For inhibition experiments, cells were then incubated at RT with various concentrations of compounds with 1% DMSO final. Non-specific uptake was defined in the presence of 10 μM S-(4-Nitrobenzyl)-6-thioinosine (NBTI, Sigma Cat #N2255).
A solution containing [2,8-^3H]-adenosine 6 nM (40 Ci/mmol, American Radiolabeled chemicals Inc, Cat #ART 0287A) was then immediately added to the wells. The plates were then incubated for 20 min with gentle shaking and the reaction was stopped by aspiration of the mixture and washing (three times) with ice-cold UB. The cells were lysed by the addition of scintillation liquid, shaken 3 hours and the radioactivity in the cells was estimated using a microplates scintillation counter (TopCount NXT, Packard).

| Molecule | IC50 |
| --- | --- |
| 5-(3,3-Dimethyl-6-(2-methylpyrimidin-5-yl)-2-oxoindolin-1-yl)-N,2-dimethylnicotinamide [Example 41] | 0.413 µM |
| Cc1ncc(-c2ccc3c(c2)N(c2cncc(C(=O)N(C)C)n2)C(=O)C3(C)C)cn1 [Example 1, 6-(3,3-Dimethyl-6-(2-methylpyrimidin-5-yl)-2-oxoindolin-1-yl)-N,N-dimethylpyrazine-2-carboxamide] | 0.0195 µM |
| Cc1ncc(-c2ccc3c(c2)N(c2cncc(C(=O)N4CCC4)n2)C(=O)C3(C)C)cn1 [Example 3, 1-(6-(Azetidine-1-carbonyl)pyrazin-2-yl)-3,3-dimethyl-6-(2-methylpyrimidin-5-yl)indolin-2-one] | 0.0314 µM |
| Cc1ncc(-c2ccc3c(c2)N(c2cncc(C(=O)NCC(F)(F)F)n2)C(=O)C3(C)C)cn1 [Example 8, 6-(3,3-Dimethyl-6-(2-methylpyrimidin-5-yl)-2-oxoindolin-1-yl)-N-(2,2,2-trifluoroethyl)pyrazine-2-carboxamide] | 0.451 µM |
| Cc1ncc(-c2ccc3c(c2)N(c2cncc(C(N)=O)n2)C(=O)C3(C)C)cn1 [Example 10, 6-(3,3-Dimethyl-6-(2-methylpyrimidin-5-yl)-2-oxoindolin-1-yl)pyrazine-2-carboxamide] | 0.197 µM |
| Cc1ncc(-c2ccc3c(c2)N(c2cnc(C(=O)N4CCC4)cn2)C(=O)C3(C)C)cn1 [Example 13, 1-(5-(Azetidine-1-carbonyl)pyrazin-2-yl)-3,3-dimethyl-6-(2-methylpyrimidin-5-yl)indolin-2-one] | 0.767 µM |
| COCCN(C)C(=O)c1cnc(N2C(=O)C(C)(C)c3ccc(-c4cnc(C)nc4)cc32)cn1 [Example 14, 5-(3,3-Dimethyl-6-(2-methylpyrimidin-5-yl)-2-oxoindolin-1-yl)-N-(2-methoxyethyl)-N-methylpyrazine-2-carboxamide] | 0.186 µM |

More lines, in order of falling IC50, values ahead:

| IC50 | Molecule |
| --- | --- |
| 0.927 µM | Cc1ncc(-c2ccc3c(c2)N(c2cnc(C(=O)N(C)C(C)(C)C)cn2)C(=O)C3(C)C)cn1 [Example 12, N-(tert-Butyl)-5-(3,3-dimethyl-6-(2-methylpyrimidin-5-yl)-2-oxoindolin-1-yl)-N-methylpyrazine-2-carboxamide] |
| 0.537 µM | Cc1ncc(-c2ccc3c(c2)N(c2nccc(C(=O)N(C)C)n2)C(=O)C3(C)C)cn1 [Example 17, 2-(3,3-Dimethyl-6-(2-methylpyrimidin-5-yl)-2-oxoindolin-1-yl)-N,N-dimethylpyrimidine-4-carboxamide] |
| 0.513 µM | Cc1ncc(-c2ccc3c(c2)N(c2cncc(C(=O)N(C)CC(F)(F)F)n2)C(=O)C3(C)C)cn1 [Example 4, 6-(3,3-Dimethyl-6-(2-methylpyrimidin-5-yl)-2-oxoindolin-1-yl)-N-methyl-N-(2,2,2-trifluoroethyl)pyrazine-2-carboxamide] |
| 0.391 µM | Cc1ncc(-c2ccc3c(c2)N(c2cnc(C(N)=O)cn2)C(=O)C3(C)C)cn1 [Example 15, 5-(3,3-Dimethyl-6-(2-methylpyrimidin-5-yl)-2-oxoindolin-1-yl)pyrazine-2-carboxamide] |
| 0.382 µM | COCCN(C)C(=O)c1cncc(N2C(=O)C(C)(C)c3ccc(-c4cnc(C)nc4)cc32)n1 [Example 5, 6-(3,3-Dimethyl-6-(2-methylpyrimidin-5-yl)-2-oxoindolin-1-yl)-N-(2-methoxyethyl)-N-methylpyrazine-2-carboxamide] |
| 0.196 µM | Cc1ncc(-c2ccc3c(c2)N(c2cncc(C(=O)NC(C)C)n2)C(=O)C3(C)C)cn1 [Example 9, 6-(3,3-Dimethyl-6-(2-methylpyrimidin-5-yl)-2-oxoindolin-1-yl)-N-isopropylpyrazine-2-carboxamide] |
| 0.03 µM | Cc1ncc(-c2ccc3c(c2)N(c2cncc(C(=O)NCCO)n2)C(=O)C3(C)C)cn1 [Example 6, 6-(3,3-Dimethyl-6-(2-methylpyrimidin-5-yl)-2-oxoindolin-1-yl)-N-(2-hydroxyethyl)pyrazine-2-carboxamide] |
